Measurements from publication PMC8881610 (Nature Communications, 2022).
Changes are numbered by the printed parent chain.

Assays:
[1] = target: GLP-1R (Homo sapiens, UniProt P43220, W91A); experiment: Whole-cell binding assay, competition with 125I-GLP-1(7-36)NH2; set-up: Flag; expressed in transfected cells; details: GLP-1R W91A, CHO-K1
Summary of the method: (§1)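 CHO-K1 cells transiently transfected with WT or mutant receptor constructs, washed in F-12 with 0.1% BSA or casein/33 mM HEPES and incubated 2 h at 37 °C. Bound radioactivity counted after Triton lysis; data normalized to WT and fitted to a three-parameter logistic equation.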

[2] = target: GLP-1R (Homo sapiens, UniProt P43220, Q210A); experiment: as above; set-up: Flag; expressed in transfected cells; details: GLP-1R Q210A, CHO-K1
GLP-1R (Homo sapiens, UniProt P43220, Q210A), sequence (P43220 24-463 Q210A): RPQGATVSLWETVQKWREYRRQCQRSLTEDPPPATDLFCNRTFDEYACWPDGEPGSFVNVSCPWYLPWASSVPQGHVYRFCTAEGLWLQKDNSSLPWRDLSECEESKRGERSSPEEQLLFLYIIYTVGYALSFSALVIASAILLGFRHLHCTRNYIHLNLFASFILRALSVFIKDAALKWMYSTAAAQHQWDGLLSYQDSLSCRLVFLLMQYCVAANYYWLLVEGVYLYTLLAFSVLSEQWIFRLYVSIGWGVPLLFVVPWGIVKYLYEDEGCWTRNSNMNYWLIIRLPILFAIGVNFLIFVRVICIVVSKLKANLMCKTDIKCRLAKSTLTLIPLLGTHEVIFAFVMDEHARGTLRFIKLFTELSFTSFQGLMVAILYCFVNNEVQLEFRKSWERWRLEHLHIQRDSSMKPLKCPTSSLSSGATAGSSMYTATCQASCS
Summary of the method: as §1

[3] = target: GLP-1R (Homo sapiens, UniProt P43220, D198A); experiment: as above; set-up: Flag; expressed in transfected cells; details: GLP-1R D198A, CHO-K1
GLP-1R (Homo sapiens, UniProt P43220, D198A), sequence (P43220 24-463 D198A): as the sequence (P43220 24-463 Q210A) above, with D175A, A187Q counted along it
Summary of the method: as §1

[4] = target: GLP-1R (Homo sapiens, UniProt P43220, R134A); experiment: as above; set-up: Flag; expressed in transfected cells; details: GLP-1R R134A, CHO-K1
GLP-1R (Homo sapiens, UniProt P43220, R134A), sequence (P43220 24-463 R134A): as the sequence (P43220 24-463 Q210A) above, with R111A, A187Q counted along it
Summary of the method: as §1

[5] = target: GLP-1R (Homo sapiens, UniProt P43220, W39A); experiment: as above; set-up: Flag; expressed in transfected cells; details: GLP-1R W39A; CHO-K1
GLP-1R (Homo sapiens, UniProt P43220, W39A), sequence (P43220 24-463 W39A): as the sequence (P43220 24-463 Q210A) above, with W16A, A187Q counted along it
Summary of the method: as §1

[6] = target: GLP-1R (Homo sapiens, UniProt P43220, K202A); experiment: as above; set-up: Flag; expressed in transfected cells; details: GLP-1R K202A, CHO-K1
GLP-1R (Homo sapiens, UniProt P43220, K202A), sequence (P43220 24-463 K202A): as the sequence (P43220 24-463 Q210A) above, with K179A, A187Q counted along it
Summary of the method: as §1

[7] = target: T1, GIPR (Homo sapiens, UniProt P48546, F127A); experiment: Whole-cell binding assay, competition with 125I-GIP1-42; set-up: acylated tirzepatide to the full-length or modified; Flag; expressed in transfected cells; details: GIPR F127A, CHO-K1
T1 sequence (P48546 22-466 F127A): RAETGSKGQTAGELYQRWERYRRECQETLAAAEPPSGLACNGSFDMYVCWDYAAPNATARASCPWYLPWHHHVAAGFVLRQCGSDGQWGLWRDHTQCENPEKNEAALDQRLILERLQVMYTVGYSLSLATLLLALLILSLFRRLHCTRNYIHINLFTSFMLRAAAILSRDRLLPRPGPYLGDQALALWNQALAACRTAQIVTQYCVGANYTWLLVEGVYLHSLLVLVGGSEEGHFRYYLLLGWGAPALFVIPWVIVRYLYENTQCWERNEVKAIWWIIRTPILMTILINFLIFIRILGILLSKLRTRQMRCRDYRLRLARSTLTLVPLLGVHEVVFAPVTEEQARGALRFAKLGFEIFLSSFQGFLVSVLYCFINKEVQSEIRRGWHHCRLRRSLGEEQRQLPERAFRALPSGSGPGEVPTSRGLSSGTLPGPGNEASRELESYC
Summary of the method: (§2)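 Transiently transfected CHO-K1 cells expressing WT or mutant GIPR were washed in F-12 with 0.1% BSA or 0.1% casein and 33 mM HEPES, then incubated 2 h at 37 °C. After ice-cold PBS washes, cells were lysed and bound radioactivity counted (CPM).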

[8] = target: T2, GIPR (Homo sapiens, UniProt P48546, W209A); experiment: as above; set-up: acylated tirzepatide to the full-length or modified; Flag; expressed in transfected cells; details: GIPR W209A, CHO-K1
T2 sequence (P48546 22-466 W209A): T1 sequence (P48546 22-466 F127A) with A106F, W188A
Summary of the method: as §2

[9] = read-out: binding pIC50 (converted)

GLP-1R (Homo sapiens, UniProt P43220, W91A), sequence (P43220 24-463 W91A): as the sequence (P43220 24-463 Q210A) above, with W68A, A187Q counted along it

`CCCCCCCCCCCCCCCC(=O)N[C@@H](CCC(=O)NCCCC[C@H](NC(=O)[C@H](CC(=O)O)NC(=O)[C@H](CO)NC(=O)[C@@H](NC(=O)[C@H](Cc1ccccc1)NC(=O)[C@@H](NC(=O)CNC(=O)[C@H](CCC(N)=O)NC(=O)C(C)(C)NC(=O)[C@@H](N)Cc1c[nH]cn1)[C@@H](C)O)[C@@H](C)O)C(=O)N[C@@H](CO)C(=O)N[C@@H](CCCCN)C(=O)N[C@@H](Cc1ccc(O)cc1)C(=O)N[C@@H](CC(C)C)C(=O)N[C@@H](CC(=O)O)C(=O)N[C@@H](CCC(=O)O)C(=O)N[C@@H](CCCNC(=N)N)C(=O)N[C@@H](C)C(=O)N[C@@H](C)C(=O)N[C@@H](CCC(N)=O)C(=O)N[C@@H](CC(=O)O)C(=O)N[C@@H](Cc1ccccc1)C(=O)N[C@H](C(=O)N[C@@H](CCC(N)=O)C(=O)N[C@@H](Cc1c[nH]c2ccccc12)C(=O)N[C@@H](CC(C)C)C(=O)N[C@@H](CC(C)C)C(=O)N[C@@H](CC(=O)O)C(=O)NCC(=O)NCC(=O)N1CCC[C@H]1C(=O)N[C@@H](CO)C(=O)N[C@@H](CO)C(=O)NCC(=O)N[C@@H](C)C(=O)N1CCC[C@H]1C(=O)N1CCC[C@H]1C(=O)N1CCC[C@H]1C(=O)N[C@@H](CO)C(N)=O)C(C)C)C(=O)O` [Peptide 20] was tested, and the “binding Span” value [1] was 6.51 ± 2.59 % WT, the IC50 [1, 9] was 2.04 nM and the “binding Span” value [2] was 100.10 ± 5.13 % WT. For the same molecule, the IC50 [2, 9] was 4.07 nM, the “binding Span” value [3] was 1.88 ± 1.66 % WT and the IC50 [3, 9] was 52.5 nM. For the same molecule, the “binding Span” value [4] was 73.44 ± 3.42 % WT, the IC50 [4, 9] was 3.02 nM and the “binding Span” value [5] was “N.B”. For the same molecule, the “binding pIC50” value [5] was “N.B”, the “binding Span” value [6] was 15.32 ± 1.82 % WT and the IC50 [6, 9] was 3.47 nM. The “binding Span” value [7] was 85.53 ± 4.36 % WT, the IC50 [7, 9] was 20 nM and the “binding Span” value [8] was 96.83 ± 6.13 % WT. The IC50 [8, 9] was 20 nM.
